What follows are compounds tested against T1, Δ^5 -lipoxygenase from rat basophilic leukemia (RBL-1) cells (Rattus norvegicus, UniProt P12527) (assay: In vitro test for Δ^5-lipoxygenase inhibitors (5-HETE radioimmunoassay)). Settings: RBL-1 5-LO, 5-HETE formation; read-out: Inhib. of Δ^5 Lipoxygenase IC50.
T1 construct: The isolated cytosolic fraction was stored in liquid N2 for up to 8 weeks without loss of 5-LO enzyme activity; endogenous in cells; host or cells: RBL-1 cells (ATCC CRL 1378), 113,000×g supernatant (cytosol)
T1 sequence (P12527 1-673): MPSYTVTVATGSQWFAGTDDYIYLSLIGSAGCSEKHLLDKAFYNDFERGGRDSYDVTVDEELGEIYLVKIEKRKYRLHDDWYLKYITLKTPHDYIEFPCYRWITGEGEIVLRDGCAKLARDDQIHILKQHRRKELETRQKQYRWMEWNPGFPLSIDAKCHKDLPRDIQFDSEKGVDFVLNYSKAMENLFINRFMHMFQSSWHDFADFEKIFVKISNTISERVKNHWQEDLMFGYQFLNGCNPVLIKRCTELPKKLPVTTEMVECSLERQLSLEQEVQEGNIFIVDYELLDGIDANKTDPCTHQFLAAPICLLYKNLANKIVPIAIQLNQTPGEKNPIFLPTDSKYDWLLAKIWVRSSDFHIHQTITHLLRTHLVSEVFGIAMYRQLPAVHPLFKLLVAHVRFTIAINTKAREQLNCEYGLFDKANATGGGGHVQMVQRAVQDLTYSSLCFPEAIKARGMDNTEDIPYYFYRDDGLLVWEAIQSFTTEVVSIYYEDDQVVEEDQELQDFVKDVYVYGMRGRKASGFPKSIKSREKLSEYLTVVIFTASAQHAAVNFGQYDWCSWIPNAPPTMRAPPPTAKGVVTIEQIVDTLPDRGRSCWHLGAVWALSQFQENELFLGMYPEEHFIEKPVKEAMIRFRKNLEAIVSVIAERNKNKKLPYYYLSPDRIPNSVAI
Type: biochemical
Method: RBL-1 cells (CRL 1378) were obtained from the American Type Culture Collection, Rockville, MD. DMEM and glutamine were purchased from Flow Labs, McLean, Va. FBS (Gibco, Grand Island, N.Y.) was heat-inactivated for 1 hour at 56° C. Reagents for protein determinations were obtained from Biorad, Rockville Center, N.Y. Arachidonic acid (approx. 99%), ATP (disodium salt), BHT, dextran (clinical grade), tetrasodium EDTA, gelatin, gentamycin sulfate solution, reduced glutathione, 1 M HEPES buffer, indomethacin, NaCl, reduced NADPH, Trizma 7.2, and Trizma 8.5 were purchased from Sigma Chemical, St. Louis, Mo. CaCL2 dihydrate, Norit A charcoal, and citric acid monohydrate were obtained from Fisher Scientific, Pittsburgh, Pa. […] A synthetic 5-HETE standard was supplied by Dr. M. Rosenberger, Dept. of Medicinal Chemistry, Hoffmann La-Roche, Nutley, N.J.; [see Corey, E. J., and Hashimoto, S. (1981) Tet. […] Approximately 7-9 days after thawing, RBL-1 cells growing in log phase were seeded at a density of 7500 viable cells/ml in a closed 89-liter spinner flask. […] RBL-1 cells were harvested by centrifugation at 4° C. at 1500×g for 10 minutes and were washed 3 times with ice cold 0.05M tris-hCl, pH 7.2, tetrasodium EDTA (buffer 1). The cells were washed last in 0.05M Tris-HCl containing 14 μM indomethacin, 1 mM glutathione, 1.5 mM NaCl, and 1 mM tetrasodium EDTA (buffer 2), resuspended at a density of 5×108'/ml approximately 10 ml) and disrupted manually at 4° C. using a 40 ml Dounce (type A pestle) homogenizer. After 5 minutes of homogenization, 95% cell lysis was confirmed by phase contrast microscopy. The broken cells were diluted 1:2 with buffer 2 and centrifuged at 12,380×g for 10 minutes at 4° C. to pellet cellular debris and granules. The 12,380×g supernatant was centrifuged at 113,000×g for 60 minutes to pellet microsomes. The high-speed supernatant (5.9±0.48 mg/ml protein) was frozen immediately in 1 ml aliquots using a dry ice/acetone bath. The isolated cytosolic fraction was stored in liquid N2 for up to 8 weeks without loss of 5-LO enzyme activity. Compounds were dissolved at 25 mM concentration in DMSO, then diluted to final concentrations using 95% ethanol. For a typical enzyme assay, the partially purified 5-LO preparation was preincubated with drug or vehicle for 10 minutes at 30° C. The assay tubes were then transferred at a 37° C. water bath where they received arachidonic acid (8.25 μM final concentration) to initiate 5-LO activity. […] The samples were immediately cooled on ice and neutralized by dilution with 0.05M Tris-HCl, pH 8.5, which contained 25 mg/1 BHT. A boiled cytosol control was placed at the end of each assay to emasure non-enzymatic oxidation of arachidonic acid. […] Under the assay conditions described, the 5-LO catalyzed the conversion of arachidonic acid to 5-HPETE which, as a consequence of peroxidase activity, was reduced to 5-HETE. A specific radioimmunoassay was employed to quantitate the amount (pmoles) of 5-HETE formed during the enzyme reaction. To prepare the immunogen, Dr. M. Rosenberger (Dept. of Medicinal Chemistry) converted the racemic 5-HETE lactone (Corey, E. J., and Hashimoto, S. (1981) Tet. Letters, 22, 299-302) to its hydrazine derivative. The hydrazide was conjugated to thiolated Keyhole Limpet Hemocyanin (Young, […]., and Rokach, J. (1982) Prostaglandins 23, 603-613) using N-ethyl-maleimide as previously described for LTB4 by (Young, R., N, Zomboni, R. and Rokach, J. 91983) Prostaglandins, 26, 605-613). New Zealand White rabbits received multiple intradermal injections on their backs with […] conjugate emulsified in complete Freund's adjuvant. A schedule of injections reported by Salmon (Salmon, J. A. (1978) Prostaglandins, 15, 383-397) was followed. After the monthly i.p. booster injections, blood was obtained from the marginal ear vein 5-7 days later and assessed for antibody titer. […]

Row | Structure (SMILES) | IC50 [nM]
1 | CCCc1c(OCCCCCCc2ccc(O)c(O)c2)ccc(C(=O)O)c1O [4-[6-(3,4-dihydroxyphenyl)hexyloxy]-2-hydroxy-3-propylbenzoic acid] | 5
2 | CCCc1c(OCCCCCCc2ccc(C(C)C)c(O)c2O)ccc(C(=O)O)c1O [4-[6-[2,3-dihydroxy-4-(1-methylethyl)phenyl]hexyloxy]-2-hydroxy-3-propylbenzoic acid] | 100
3 | CCCc1c(OCCCCCCCCCCc2cccc(O)c2O)ccc(C(=O)O)c1O [4-[10-(2,3-dihydroxyphenyl)decyloxy]-2-hydroxy-3-propylbenzoic acid] | 20
4 | CCCc1c(OCCCCCc2cccc(O)c2O)ccc(C(=O)O)c1O [4-[5-(2,3-Dihydroxyphenyl)pentyloxy]-2-hydroxy-3-propylbenzoic acid] | 6
5 | O=C(O)c1ccc(OCCCCCCc2cccc(O)c2O)cc1O [4-[6-(2,3-Dihydroxyphenyl)hexyloxy]-2-hydroxybenzoic acid] | 320
6 | CCCc1c(OCCCCCCc2cccc(O)c2O)ccc(C(=O)O)c1O [4-[6-(2,3-Dihydroxyphenyl)hexyloxy]-2-hydroxy-3-propylbenzoic acid] | 20
7 | CCCc1c(OCCCCCCc2cccc(O)c2O)ccc(C(C)=O)c1O [1-[2-hydroxy-4-[6-(2,3-dihydroxyphenyl)hexyloxy]-3-propylphenyl]ethanone] | 30
8 | CCCc1c(OCCCCCCCc2cccc(O)c2O)ccc(C(=O)O)c1O [4-[7-(2,3-dihydroxyphenyl)heptyloxy]-2-hydroxy-3-propylbenzoic acid] | 5
9 | CCCc1c(OCCCCc2cccc(O)c2O)ccc(C(=O)O)c1O [4-[4-(2,3-dihydroxyphenyl)butoxy]-2-hydroxy-3-propylbenzoic acid] | 90
10 | O=C(O)c1ccc(OCCCCCCc2cccc(O)c2O)cc1 [4-[6-(2,3-Dihydroxyphenyl)hexyloxy]benzoic acid] | 170

Same assay, conditions: read-out: Inhib. of Δ^5 Lipoxygenase, % inhibition at 0.01 μM

Row | Structure (SMILES) | inhibition at 0.01 µM [%]
11 | CCCc1c(OCCCCc2cccc(O)c2O)ccc(C(C)=O)c1O [1-[2-Hydroxy-4-[4-(2,3-dihydroxyphenyl)butoxy]-3-propylphenyl]ethanone] | 48

Same assay, conditions: read-out: Inhib. of Δ^5 Lipoxygenase, % inhibition at 0.1 μM

Row | Structure (SMILES) | inhibition at 0.1 µM [%]
12 | CCCc1c(OCCCCCCc2ccc(C(C)C)c(O)c2O)ccc(C(C)=O)c1O [1-[2-hydroxy-4 [6-[2,3 dihydroxy-4-(1-methylethyl)phenyl]hexyloxy]-3 propylphenyl]ethanone] | 35
13 | CCCc1c(O)c(C(=O)O)cc(Cl)c1OCCCCCCc1cccc(O)c1O [5-Chloro-2-hydroxy-4-[6-(2,3-dihydroxyphenyl]hexyloxy]-3-propylbenzoic acid] | 48
14 | CCCc1c(OCCCCCCCCc2cccc(O)c2O)ccc(C(=O)O)c1O [4-[8-(2,3-dihydroxyphenyl)octyloxy]-2-hydroxy-3-propylbenzoic acid] | 62

Same assay, conditions: read-out: Inhib. of Δ^5 Lipoxygenase, % inhibition at 1 μM

Row | Structure (SMILES) | inhibition at 1 µM [%]
15 | CCCc1c(OCCCc2ccc(O)c(O)c2)ccc(C(=O)O)c1O [4-[3-(3,4-Dihydroxyphenyl)propoxy]-2-hydroxy-3-propylbenzoic acid] | 97
16 | CCCc1c(OCCCCCCc2cccc(O)c2O)ccc(C(=O)OCC)c1O [4-[6-(2,3-Dihydroxyphenyl)hexyloxy]-2-hydroxy-3-propylbenzoic acid ethyl ester] | 100
